Holding throughout (assay): NCI tumour cell line growth inhibition, 48 h
Test [1] has as its system DMS 114 small cell lung.
For test [2], the system named is DMS 273 small cell lung.
Test [3] concerns HOP-18 NSCLC.
Test [4] concerns KM20L2 colon.
In test [5] the test system is LXFL 529 NSCLC.
In test [6] the test system is M19-MEL melanoma.
Test [7] concerns MDA-N.

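48-hour exposure; five concentrations; linearly interpolated endpoints. Definition used: TGI = concentration required for complete inhibition of growth.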

In the case of `CC(=O)Nc1ccc(/C=c2\sc3nnc(/C=C/c4ccccc4)n3c2=O)cc1`, the TGI in test [1], in test [2], in test [3], in test [4], in test [5] and in test [6] was more than 50 µM throughout.

Consider `COc1ccc(-c2c(N)[n+]([O-])c3cc(C)c(C)cc3[n+]2[O-])cc1OC`, for which the TGI in test [1] is 67.8 µM; in test [2], more than 100 µM; in test [3] it was more than 100 µM; in test [4], more than 100 µM; in test [5], more than 100 µM; in test [6], more than 100 µM.

`CC(NC1CCC[C@H]1O)c1ccccc1` (mixture of isomers): the TGI in test [1], in test [2], in test [3], in test [4] and in test [6] was more than 100 µM each time.

As to `COc1cc(C2C(C(=O)O)=C(C)Oc3cc4c(cc32)OCO4)cc(OC)c1OC` (stereo not given), the TGI is 50.6 µM in test [1]; more than 100 µM in test [2]; more than 100 µM in test [3]; more than 100 µM in test [4]; more than 100 µM in test [6].

For `CN(C)CC1(C)CC/C(=C\c2ccc3c(c2)OCO3)C1=O` (stereo not given), the TGI in test [1], in test [2], in test [3], in test [4], in test [5] and in test [6] was more than 100 µM in each case.

Consider `C=CC1=C(C)C2=NC1=CC1=NC(=C(CC)/C1=C/O)C=C1C=C3C(=O)C(C(=O)OC)C(=C4NC(=C2)C(C)C4CCC(=O)OC/C=C(\C)CCCC(C)CCCC(C)CCCC(C)C)C3=N1` (stereo not given) (tested in a mixture with another compound), for which, in test [7], the TGI is more than 100 µM.

Consider `CCCCCCCCCCCCCCCCCC(=O)NCCCNCCCNC(=O)CCCCCCCCCCCCCCCCC`, for which the TGI in test [1], in test [2], in test [3], in test [4], in test [5] and in test [6] was more than 100 µM throughout.

Take `C=C1CC2(OC1=O)c1ccccc1CCc1ccccc12`: the TGI in test [1] stood at 3.42 µM; in test [2], 11.3 µM; in test [3], 4.61 µM; in test [4], 14.5 µM; in test [5], 3.07 µM; in test [6], 3.36 µM. Further, the TGI in test [7] turned out to be 3.34 µM.

Take `O=C1OC(c2ccc([N+](=O)[O-])cc2)=N/C1=C\c1ccc(O)cc1`: the TGI in test [7] is more than 100 µM.

Consider `Nc1nc(N)c(-c2ccccc2)c(C(=O)Nc2ccc(Cl)c(Cl)c2)n1`, for which the TGI in test [1], in test [2], in test [3], in test [4], in test [5] and in test [6] was more than 100 µM each time.

`COCCN1C2=CCCCC2=Nc2c(N)nc(N)nc21`: the TGI in test [1], in test [2], in test [3], in test [4], in test [5] and in test [6] was more than 100 µM each time.

In the case of `CCC(=S)N(C)O`, the TGI in test [1] is 5.82 µM; in test [4], more than 100 µM; in test [5] it was more than 100 µM; in test [6], more than 51.7 µM; in test [7] it was more than 100 µM.

In the case of `CC1CC2C3CC(F)C4=CC(=O)C=CC4(C)C3(F)C(O)CC2(C)C1(O)C(=O)CO` (stereo not given), the TGI in test [1], in test [2], in test [4] and in test [6] was more than 100 µM each time.

On to `COC(=O)C(C(=O)C(=O)Nc1ccccc1OC)c1csc(-n2nc(-c3ccccc3)cc2-c2ccccc2)n1` (stereo not given), for which the TGI in test [1], in test [2], in test [3], in test [4], in test [5] and in test [6] was more than 100 µM throughout.

`O=C(O)[C@@H]1C[C@@H](O)CN1` gave a TGI in test [7] of more than 100 µM.

Take `CN/N=C(\C)CC(=O)Nc1cccc(Cl)c1C`: the TGI in test [1], in test [2], in test [3], in test [4], in test [5] and in test [6] was more than 100 µM throughout.

`COc1cc2c(cc1OC)-c1c(cc(OC)c(OC)c1OC)C2=O`: the TGI in test [1], in test [3], in test [4], in test [5] and in test [6] was more than 100 µM in each case.

Turning to `CC1=CCC2(C#N)CCC1C2=O` (stereo not given), the TGI in test [1], in test [4], in test [5] and in test [6] was more than 100 µM in each case.

As to `C/C=C/C=C/[C@H]1Cc2cc(O)cc(O)c2O1`, the TGI in test [1], in test [2], in test [3], in test [4], in test [5] and in test [6] was more than 100 µM in each case.

As to `CSc1s[s+]c(SC)c1[O-]`, the TGI in test [1] was 34.6 µM; in test [2] it was more than 100 µM; in test [3], more than 100 µM; in test [4], more than 100 µM; in test [5], 38.7 µM; in test [6], 29.5 µM.

For the compound `Cc1oc2c(c1C(=O)c1ccccc1)C(=O)c1ccccc1C2=O`, the TGI in test [1] was found to be 8.03 µM; in test [2] it was 26.7 µM; in test [3] it was 30.4 µM; in test [4], 31.9 µM; in test [5], 3.1 µM; in test [6], 4.93 µM. The TGI in test [7] was 3.9 µM.

The values are drawn from PubChem BioAssay (NCI).
